Earlier results, collected in patent publication US9402788B2, “Manufacture of multiple minicapsules” (Sigmoid Pharma Ltd., priority 2007, dated 2016).
Where a name gives a salt, the structure may show the parent alone. One block for each compound: values may come before it.

How the values were obtained:
[1] = HME film, clotrimazole 10% w/w
[2] = after extrusion with EC/HM polymers; HPLC

SMILES: Cn1c(=O)c2[nH]cnc2n(C)c1=O.O [theophylline monohydrate]
aqueous solubility: 8.33 mg/mL

aqueous solubility: 50 mg/mL
SMILES: CC(C)NCC(O)COc1cccc2ccccc12 (centres unmarked) [propranolol HCl]

duration of prolonged release [1]: 10 h
duration of zero-order release [1]: 6 h
SMILES: Clc1ccccc1C(c1ccccc1)(c1ccccc1)n1ccnc1 [clotrimazole]

ibuprofen amount remained after extrusion [2]: 98.9%
SMILES: CC(C)Cc1ccc(C(C)C(=O)O)cc1 (centres unmarked) [ibuprofen]
